Results from patent US11965039B2, “Compstatin analogues and their medical uses” (priority 2018, dated 2024).
Starred links: 1 amine or outer side, 2 acyl side, 3 side chain; linkers in the order of their positions; H or OH if unused. Positions of bridges follow the written chain, without caps; N, C: chain ends. Non-standard residues stand in square brackets, D forms with d. Residues, ends and D or L forms follow the SMILES beside them. Groups on a side chain read outwards from the residue. *: point of attachment. Trp(1-Me) = Cn1cc(C[C@H](N)C(=O)O)c2ccccc21; C18 diacid = O=C(O)CCCCCCCCCCCCCCCCC(=O)*; C16 diacid = O=C(O)CCCCCCCCCCCCCCC(=O)*; γGlu = O=C(O)[C@H](CCC(=O)[*:2])N[*:1]; 2Nal = N[C@@H](Cc1ccc2ccccc2c1)C(=O)O; AEEA = NCCOCCOCC(=O)O; Sar = CNCC(=O)O

Assays:
[1] = test system: classical complement pathway; experiment: In vitro haemolysis assay (inhibition of classical complement pathway); type: cell-based, human; details: human serum, sensitized sheep red blood cells; Table 3, given as upper bounds; read-out: IC50, inhibition of hemolysis
Outline: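 Compound dilutions preincubated 15 min at room temperature with diluted human serum (titrated per batch for 70-90% maximal haemolysis), then antibody-sensitized sheep RBC (10^7/well) added for 30 min at 37 °C in Tris/casein buffer, pH 7.4. Stopped with EDTA; haemolysis read at 405 nm; IC50 by 4PL fit.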

[2] = Solubility test at 10 mg/mL (visual inspection and light scattering); type: physicochemical; details: for Solubility, Condition 1: Acetate pH 4; for Solubility, Condition 2: Acetate pH 5; for Solubility, Condition 3: Phosphate pH 6; for Solubility, Condition 4: Phosphate pH 7; for Solubility, Condition 5: Phosphate pH 7.5

SMILES	IC50 [1] [nM]	Solubility, Condition 1 [2]	Solubility, Condition 2 [2]	Solubility, Condition 3 [2]	Solubility, Condition 4 [2]	Solubility, Condition 5 [2]
CC[C@H](C)[C@@H]1NC(=O)[C@@H](NC(=O)[C@H](Cc2ccc(O)cc2)NC(C)=O)CSSC[C@@H](C(=O)N[C@H](C(=O)NCC(=O)N[C@@H](C)C(=O)N[C@@H](CCC(=O)O)C(=O)N[C@@H](CO)C(N)=O)[C@@H](C)O)NC(=O)[C@H](CCCNC(=N)N)NC(=O)[C@H](Cc2c[nH]cn2)NC(=O)[C@H](CCC(=O)O)NC(=O)CNC(=O)[C@H](Cc2c[nH]c3ccccc23)NC(=O)[C@H](CC(=O)O)NC(=O)[C@H](CCC(N)=O)NC(=O)[C@H](Cc2ccc3ccccc3c2)NC1=O [Compound 65] (Ac-YCI[2Nal]QDWGEHRCTGAES-NH2; disulfide 2-12)	< 100	− (“−” denotes lack of solubility at the given condition, as UV absorbance at 340 nm exceeds 0.1 AU and/or it is visibly turbid or contains particles)	− (“−” denotes lack of solubility at the given condition, as UV absorbance at 340 nm exceeds 0.1 AU and/or it is visibly turbid or contains particles)	+ (“+” denotes solubility at the given condition, as determined by UV absorbance being less than 0.1 AU at 340 nm and the sample being clear when manually inspected)	+ (“+” denotes solubility at the given condition, as determined by UV absorbance being less than 0.1 AU at 340 nm and the sample being clear when manually inspected)	+ (“+” denotes solubility at the given condition, as determined by UV absorbance being less than 0.1 AU at 340 nm and the sample being clear when manually inspected)
CC[C@H](C)[C@H](NC(C)=O)C(=O)N[C@H]1CSSC[C@@H](C(=O)N[C@H](C(=O)NCC(=O)N[C@@H](C)C(=O)N[C@@H](CCC(=O)O)C(=O)N[C@@H](CO)C(N)=O)[C@@H](C)O)NC(=O)[C@H](CCCNC(=N)N)NC(=O)[C@H](Cc2c[nH]cn2)NC(=O)[C@H](CCC(=O)O)NC(=O)CNC(=O)[C@H](Cc2c[nH]c3ccccc23)NC(=O)[C@H](CC(=O)O)NC(=O)[C@H](CCC(N)=O)NC(=O)[C@H](Cc2cn(C)c3ccccc23)NC(=O)[C@H]([C@@H](C)CC)NC1=O [Compound 51] (Ac-ICI[Trp(1-Me)]QDWGEHRCTGAES-NH2; disulfide 2-12)	< 100	− (“−” denotes lack of solubility at the given condition, as UV absorbance at 340 nm exceeds 0.1 AU and/or it is visibly turbid or contains particles)	− (“−” denotes lack of solubility at the given condition, as UV absorbance at 340 nm exceeds 0.1 AU and/or it is visibly turbid or contains particles)	+ (“+” denotes solubility at the given condition, as determined by UV absorbance being less than 0.1 AU at 340 nm and the sample being clear when manually inspected)	+ (“+” denotes solubility at the given condition, as determined by UV absorbance being less than 0.1 AU at 340 nm and the sample being clear when manually inspected)	+ (“+” denotes solubility at the given condition, as determined by UV absorbance being less than 0.1 AU at 340 nm and the sample being clear when manually inspected)
CC[C@H](C)[C@@H]1NC(=O)[C@@H](NC(=O)[C@H](Cc2ccccc2)NC(=O)[C@H](CCC(=O)O)NC(=O)[C@H](CO)NC(C)=O)CSSC[C@@H](C(=O)N(C)CC(=O)N[C@@H](CCC(=O)O)C(N)=O)NC(=O)[C@H](CCCNC(=N)N)NC(=O)[C@H](Cc2c[nH]cn2)NC(=O)[C@H](CCC(=O)O)NC(=O)CN(C)C(=O)[C@H](Cc2c[nH]c3ccccc23)NC(=O)[C@H](CC(=O)O)NC(=O)[C@H](CCC(N)=O)NC(=O)[C@H](Cc2cn(C)c3ccccc23)NC1=O [Compound 79, Ac-SEFC(1)I[1-Me-Trp]QDW[Sar]EHRC(1)[Sar]E-NH2] (Ac-SEFCI[Trp(1-Me)]QDW[Sar]EHRC[Sar]E-NH2; disulfide 4-14)	< 100	− (“−” denotes lack of solubility at the given condition, as UV absorbance at 340 nm exceeds 0.1 AU and/or it is visibly turbid or contains particles)	− (“−” denotes lack of solubility at the given condition, as UV absorbance at 340 nm exceeds 0.1 AU and/or it is visibly turbid or contains particles)	+ (“+” denotes solubility at the given condition, as determined by UV absorbance being less than 0.1 AU at 340 nm and the sample being clear when manually inspected)	+ (“+” denotes solubility at the given condition, as determined by UV absorbance being less than 0.1 AU at 340 nm and the sample being clear when manually inspected)	+ (“+” denotes solubility at the given condition, as determined by UV absorbance being less than 0.1 AU at 340 nm and the sample being clear when manually inspected)
CC[C@H](C)[C@@H]1NC(=O)[C@@H](NC(=O)[C@H](Cc2ccccc2)NC(C)=O)CSSC[C@@H](C(=O)N[C@H](C(=O)NCC(=O)N[C@@H](C)C(=O)N[C@@H](CCC(=O)O)C(=O)N[C@@H](CO)C(=O)N[C@@H](CCCCNC(=O)COCCOCCNC(=O)COCCOCCNC(=O)CC[C@H](NC(=O)CCCCCCCCCCCCCCC(=O)O)C(=O)O)C(N)=O)[C@@H](C)O)NC(=O)[C@H](CCCNC(=N)N)NC(=O)[C@H](Cc2c[nH]cn2)NC(=O)[C@H](CCC(=O)O)NC(=O)CNC(=O)[C@H](Cc2c[nH]c3ccccc23)NC(=O)[C@H](CC(=O)O)NC(=O)[C@H](CCC(N)=O)NC(=O)[C@H](Cc2cn(C)c3ccccc23)NC1=O [Compound 102] (Ac-FCI[Trp(1-Me)]QDWGEHRCTGAESK([AEEA-AEEA-γGlu-C16 diacid])-NH2; disulfide 2-12)	< 100	− (“−” denotes lack of solubility at the given condition, as UV absorbance at 340 nm exceeds 0.1 AU and/or it is visibly turbid or contains particles)	+ (“+” denotes solubility at the given condition, as determined by UV absorbance being less than 0.1 AU at 340 nm and the sample being clear when manually inspected)	+ (“+” denotes solubility at the given condition, as determined by UV absorbance being less than 0.1 AU at 340 nm and the sample being clear when manually inspected)	+ (“+” denotes solubility at the given condition, as determined by UV absorbance being less than 0.1 AU at 340 nm and the sample being clear when manually inspected)	+ (“+” denotes solubility at the given condition, as determined by UV absorbance being less than 0.1 AU at 340 nm and the sample being clear when manually inspected)
CC[C@H](C)[C@@H]1NC(=O)[C@@H](NC(=O)[C@H](Cc2ccc(O)cc2)NC(=O)[C@H](CCC(=O)O)NC(=O)[C@H](CO)NC(C)=O)CSSC[C@@H](C(=O)N(C)CC(=O)N[C@@H](CCC(=O)O)C(=O)NCC(=O)N[C@@H](CCCCN)C(=O)N[C@@H](CCCCNC(=O)CC[C@H](NC(=O)CNC(=O)CC[C@H](NC(=O)CCCCCCCCCCCCCCCCC(=O)O)C(=O)O)C(=O)O)C(N)=O)NC(=O)[C@H](CCCNC(=N)N)NC(=O)[C@H](Cc2c[nH]cn2)NC(=O)[C@H](CCC(=O)O)NC(=O)CNC(=O)[C@H](Cc2c[nH]c3ccccc23)NC(=O)[C@H](CC(=O)O)NC(=O)[C@H](CCC(N)=O)NC(=O)[C@H](Cc2cn(C)c3ccccc23)NC1=O [Compound 115] (Ac-SEYCI[Trp(1-Me)]QDWGEHRC[Sar]EGKK([γGlu-Gly-γGlu-C18 diacid])-NH2; disulfide 4-14)	< 250	− (“−” denotes lack of solubility at the given condition, as UV absorbance at 340 nm exceeds 0.1 AU and/or it is visibly turbid or contains particles)	− (“−” denotes lack of solubility at the given condition, as UV absorbance at 340 nm exceeds 0.1 AU and/or it is visibly turbid or contains particles)	+ (“+” denotes solubility at the given condition, as determined by UV absorbance being less than 0.1 AU at 340 nm and the sample being clear when manually inspected)	+ (“+” denotes solubility at the given condition, as determined by UV absorbance being less than 0.1 AU at 340 nm and the sample being clear when manually inspected)	+ (“+” denotes solubility at the given condition, as determined by UV absorbance being less than 0.1 AU at 340 nm and the sample being clear when manually inspected)
CC[C@H](C)[C@@H]1NC(=O)[C@@H](NC(=O)[C@H](Cc2ccccc2)NC(=O)[C@H](C)NC(=O)[C@H](CO)NC(=O)CNC(=O)[C@H](CCC(=O)O)NC(C)=O)CSSC[C@@H](C(=O)N[C@H](C(=O)N[C@@H](CCC(=O)O)C(N)=O)[C@@H](C)O)NC(=O)[C@H](CCCNC(=N)N)NC(=O)[C@H](Cc2c[nH]cn2)NC(=O)[C@H](CCC(=O)O)NC(=O)CNC(=O)[C@H](Cc2c[nH]c3ccccc23)NC(=O)[C@H](CC(=O)O)NC(=O)[C@H](CCC(N)=O)NC(=O)[C@H](Cc2ccc3ccccc3c2)NC1=O [Compound 60] (Ac-EGSAFCI[2Nal]QDWGEHRCTE-NH2; disulfide 6-16)	< 100	− (“−” denotes lack of solubility at the given condition, as UV absorbance at 340 nm exceeds 0.1 AU and/or it is visibly turbid or contains particles)	− (“−” denotes lack of solubility at the given condition, as UV absorbance at 340 nm exceeds 0.1 AU and/or it is visibly turbid or contains particles)	+ (“+” denotes solubility at the given condition, as determined by UV absorbance being less than 0.1 AU at 340 nm and the sample being clear when manually inspected)	+ (“+” denotes solubility at the given condition, as determined by UV absorbance being less than 0.1 AU at 340 nm and the sample being clear when manually inspected)	+ (“+” denotes solubility at the given condition, as determined by UV absorbance being less than 0.1 AU at 340 nm and the sample being clear when manually inspected)
